Experimental data published in US9890138B2, “Diaminopyrimidine derivatives and processes for the preparation thereof” (YUHAN CORPORATION, priority 2011, dated 2018).
Structures can show the parent of a compound that is named as a salt.

Target: T1, human 5-HT4(a) (Homo sapiens, UniProt Q13639)
T1 construct: host or cells: GeneBlAzer HTR4-CRE-bla CHO-K1 cells
Assay: Evaluation of agonistic activity in CHO-K1 cells expressing human 5-HT4(a) (GeneBlAzer HTR4-CRE-bla CHO-K1, beta-lactamase reporter)
Format: cell-based
Conditions: CHO-K1 cells stably expressing human 5-HT4(a)
Summary of the method: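 Agonism read as CRE-driven β-lactamase activity: emission ratio 465/535 nm (excitation 410 nm) after 2 h substrate loading. Preceded by 5 h compound treatment, 8 concentrations, 1% DMSO in the added solution, of overnight-plated reporter CHO-K1 cells; EC50 by non-linear regression.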

T1 sequence (Q13639 1-387 isoform Q13639-2): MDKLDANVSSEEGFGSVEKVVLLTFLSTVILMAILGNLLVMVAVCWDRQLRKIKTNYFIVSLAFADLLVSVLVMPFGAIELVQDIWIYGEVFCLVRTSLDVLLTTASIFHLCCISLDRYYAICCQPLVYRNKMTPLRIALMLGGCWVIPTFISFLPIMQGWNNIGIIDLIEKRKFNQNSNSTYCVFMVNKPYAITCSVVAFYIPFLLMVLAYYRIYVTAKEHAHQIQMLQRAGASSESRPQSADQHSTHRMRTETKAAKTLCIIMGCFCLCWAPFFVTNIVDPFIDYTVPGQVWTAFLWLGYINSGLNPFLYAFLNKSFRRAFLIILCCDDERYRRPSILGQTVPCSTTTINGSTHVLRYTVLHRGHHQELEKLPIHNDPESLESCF

| EC50 [nM] | Structure (SMILES) |
| --- | --- |
| 0.052 | CCCCc1cc(N2CCC[C@H]2C)nc(Nc2cccc(C#N)c2)n1 [Example 225] |
| 0.0013 | CCCc1cc(N2CC[C@H](NC)C2)nc(Nc2ccc(C)c(C#N)c2)n1 [Example 170] |
| 0.007 | CCCc1cc(N2CCC(NCC3CC3)C2)nc(Nc2cccc(C#N)c2)n1 (stereo not shown) [Example 387, 3-{4-[3-(cyclopropylmethylamino)pyrrolidin-1-yl]-6-propylpyrimidin-2-ylamino}benzonitrile dihydrochloride] |
| 0.0014 | CCCCc1cc(N2CC[C@H](NCC)C2)nc(Nc2ccc(N)c(C(F)(F)F)c2)n1 [Example 467] |
| 0.12 | CCCc1cc(N2CCC(NC(C)=O)C2)nc(Nc2cc(Cl)ccc2C)n1 (stereo not shown) [Example 303] |
| 0.003 | CCCCc1cc(N2CC[C@H](NC)C2)nc(Nc2ccc(Cl)c(N)c2)n1 [Example 457] |
| 0.011 | CCCc1cc(N2CC[C@H](NC(C)=O)C2)nc(Nc2cc(N)cc(C(F)(F)F)c2)n1 [Example 268] |
| 0.0043 | CCCc1cc(N2CCC(NC(C)=O)C2)nc(Nc2ccc(N)c([N+](=O)[O-])c2)n1 (stereo not shown) [Example 293] |
| 0.028 | CCCc1cc(N2CC[C@H](NC3CCN(C(C)=O)CC3)C2)nc(Nc2cccc(C#N)c2)n1 [Example 140, (S)-3-{4-[3-(1-piperidin-4-acetylpiperidin-4-ylamino)pyrrolidin-1-yl]-6-propylpyrimidin-2-ylamino}benzonitrile] |
| 0.015 | CCCc1cc(N2CCC[C@H]2CO)nc(Nc2ccc3cc[nH]c3c2)n1 [Example 185] |
| 0.0047 | CCCc1cc(N2CC[C@H](NC(C)=O)C2)nc(Nc2ccc(N)c([N+](=O)[O-])c2)n1 [Example 286, (S)—N-{1-[2-(4-amino-3-nitrophenylamino)-6-propylpyrimidin-4-yl]pyrrolidin-3-yl}acetamide hydrochloride] |
| 0.28 | CCCc1cc(N2CC[C@H](NC(=O)Cc3ccncc3)C2)nc(Nc2cccc(C#N)c2)n1 [Example 78, (S)-N-{1-[2-(3-cyanophenylamino)-6-propylpyrimidin-4-yl]pyrrolidin-3-yl}-2-(pyridin-4-yl)acetamide] |
| 0.017 | CCCc1cc(N2CC[C@H](NCC(C)C)C2)nc(Nc2cccc(C#N)c2)n1 [Example 96, (S)-3-{4-[3-(isobutylamino)pyrrolidin-1-yl]-6-propylpyrimidin-2-ylamino}benzonitrile] |
| 0.036 | CCCc1cc(N2CC[C@H](NC3CN(C(=O)OC(C)(C)C)C3)C2)nc(Nc2cccc(C#N)c2)n1 [Example 144, (S)-tert-butyl 3-{1-[2-(3-cyanophenylamino)-6-propylpyrimidin-4-yl]pyrrolidin-3-ylamino}azetidine-1-carboxylate] |
| 0.0033 | CCCCc1cc(N2CC[C@H](NC)C2)nc(Nc2cc(N)cc(C(F)(F)F)c2)n1 [Example 452] |
| 0.182 | CCCc1cc(N2CCC[C@H]2COC)nc(Nc2ccc3c(c2)NCC3)n1 [Example 368] |

| EC50 [nM] | Structure (SMILES) |
| --- | --- |
| 0.0018 | CCCc1cc(N2CC[C@H](NC(C)=O)C2)nc(Nc2ccc(C)c([N+](=O)[O-])c2)n1 [Example 249, (S)—N-{1-[2-(4-methyl-3-nitrophenylamino)-6-propylpyrimidin-4-yl]pyrrolidin-3-yl}acetamide] |
| 0.13 | CCCc1cc(N2CC[C@H](NC(=O)CCN3CCCCC3)C2)nc(Nc2cccc(C#N)c2)n1 [Example 63, (S)-N-{1-[2-(3-cyanophenylamino)-6-propylpyrimidin-4-yl]pyrrolidin-3-yl}-3-(piperidin-1-yl)propanamide] |
| 0.056 | CCCc1cc(N2CC[C@H](NC(=O)CC)C2)nc(Nc2ccc(C)c(C#N)c2)n1 [Example 425] |
| 0.079 | CCCc1cc(N2CC[C@H](NC(=O)Cc3ccccc3)C2)nc(Nc2ccc(C)c(C#N)c2)n1 [Example 426] |
| 0.0027 | CCCc1cc(N2CC[C@H](NCC3CC3)C2)nc(Nc2ccc(C)c([N+](=O)[O-])c2)n1 [Example 374, (S)-4-[3-(cyclopropylmethylamino)pyrrolidin-1-yl]-N-(4-methyl-3-nitrophenyl)-6-propylpyrimidin-2-amine] |
| 0.16 | CCCc1cc(N2CCC[C@H]2C)nc(Nc2ccc(C)c(Cl)c2)n1 [Example 318] |
| 0.014 | CCCCc1cc(N2CC[C@H](NC)C2)nc(Nc2ccc(F)c(C(F)(F)F)c2)n1 [Example 454] |
| 0.11 | CCCc1cc(N2CCC(NC(C)=O)C2)nc(Nc2cccc(C(F)(F)F)c2)n1 (stereo not shown) [Example 301] |
| 0.04 | CCCc1cc(N2CC[C@H](NC(C)=O)C2)nc(Nc2ccc(C)c(Cl)c2)n1 [Example 246] |
| 0.417 | CCCc1cc(N2CC[C@H](NC(=O)CCc3ccc(O)cc3)C2)nc(Nc2cccc(C#N)c2)n1 [Example 155, (S)-N-{1-[2-(3-cyanophenylamino)-6-propylpyrimidin-4-yl]pyrrolidin-3-yl}-3-(4-hydroxyphenyl)propanamide] |
| 0.193 | CCCc1cc(N2CC[C@H](NC(=O)CCCN(C)C)C2)nc(Nc2cccc(C#N)c2)n1 [Example 162] |
| 0.0043 | CCCCc1cc(N2CCC[C@H]2CO)nc(Nc2cccc(C#N)c2)n1 [Example 224] |
| 0.018 | CCCc1cc(N2CC[C@H](NCC)C2)nc(Nc2ccc(N)c([N+](=O)[O-])c2)n1 [Example 176] |
| 0.0098 | CCCc1cc(N2CC[C@H](NCC3CC3)C2)nc(Nc2cccc(C(F)(F)F)c2)n1 [Example 379] |
| 0.078 | CCCc1cc(N2CCC[C@H]2C)nc(Nc2ccc(Cl)c([N+](=O)[O-])c2)n1 [Example 313, (R)—N-(4-chloro-3-nitrophenyl)-4-(2-methylpyrrolidin-1-yl)-6-propylpyrimidin-2-amine] |
| 0.111 | CCCc1cc(N2CC[C@H](CN(CC)CC)C2)nc(Nc2cccc(C#N)c2)n1 [Example 434] |

The next lines start with the compound.

| Structure (SMILES) | EC50 [nM] |
| --- | --- |
| CCCc1cc(N2CCC[C@H]2CO)nc(Nc2ccc(N)c([N+](=O)[O-])c2)n1 [Example 212, (S)-{1-[2-(4-amino-3-nitrophenylamino)-6-propylpyrimidin-4-yl]pyrrolidin-2-yl}methanol] | 0.0089 |
| CCCc1cc(N2CC[C@H](NC(=O)CN3CCCCC3)C2)nc(Nc2cccc(C#N)c2)n1 [Example 71, (S)-N-{1-[2-(3-cyanophenylamino)-6-propylpyrimidin-4-yl]pyrrolidin-3-yl}-2-(piperidin-1-yl)acetamide] | 0.25 |
| CCCc1cc(N2CC[C@H](NC(C)=O)C2)nc(Nc2ccc(C)c(C#N)c2)n1 [Example 252, (S)—N-{1-[2-(3-cyano-4-methylphenylamino)-6-propylpyrimidin-4-yl]pyrrolidin-3-yl}acetamide] | 0.0052 |
| CCCc1cc(N2CCC(NC(C)=O)C2)nc(Nc2cccc([N+](=O)[O-])c2)n1 (stereo not shown) [Example 295, N-{1-[2-(3-nitrophenylamino)-6-propylpyrimidin-4-yl]pyrrolidin-3-yl}acetamide] | 0.048 |
| CCCc1cc(N2CC[C@H](N)C2)nc(Nc2cccc(C(F)(F)F)c2)n1 [Example 347, (S)-4-(3-aminopyrrolidin-1-yl)-6-propyl-N-[3-(trifluoromethyl)phenyl]pyrimidin-2-amine dihydrochloride] | 0.03 |
| CCCc1cc(N2CC[C@H](N)C2)nc(Nc2cccc([N+](=O)[O-])c2)n1 [Example 350, (S)-4-(3-aminopyrrolidin-1-yl)-N-(3-nitrophenyl)-6-propylpyrimidin-2-amine dihydrochloride] | 0.012 |
| CCCc1cc(N2CCC[C@H]2C)nc(Nc2ccc(F)c(C(F)(F)F)c2)n1 [Example 322] | 0.15 |
| CCCc1cc(N2CC[C@H](NC(C)=O)C2)nc(Nc2cccc(SC)c2)n1 [Example 242] | 0.058 |
| CCCc1cc(N2CC[C@H](NC(=O)CO)C2)nc(Nc2ccc(F)c(N)c2)n1 [Example 478] | 0.024 |
| CCCc1cc(N2CC[C@H](NC(C)=O)C2)nc(Nc2ccc(F)c(C(F)(F)F)c2)n1 [Example 253] | 0.014 |
| CCCCc1cc(N2CC[C@H](NC(C)=O)C2)nc(Nc2ccc(F)c([N+](=O)[O-])c2)n1 [Example 437] | 0.02 |
| CCCc1cc(N2CC[C@H](NS(C)(=O)=O)C2)nc(Nc2ccc(C)c(C#N)c2)n1 [Example 431, (S)—N-{1-[2-(3-cyano-4-methylphenylamino)-6-propylpyrimidin-4-yl]pyrrolidin-3-yl}methanesulfonamide] | 0.029 |
| CCCc1cc(N2CCC(NC(C)=O)C2)nc(Nc2ccc3cc[nH]c3c2)n1 (stereo not shown) [Example 192] | 0.02 |
| CCCCc1cc(N2CC[C@H](NC(C)C)C2)nc(Nc2cccc(C#N)c2)n1 [Example 235] | 0.0023 |
| CCCCN1CCC(N[C@H]2CCN(c3cc(CCC)nc(Nc4cccc(C#N)c4)n3)C2)CC1 [Example 222] | 0.082 |
| CCCc1cc(N2CC[C@H](NC(C)=O)C2)nc(Nc2ccc(N)cc2)n1 [Example 270] | 0.204 |
| CCCCc1cc(N2CC[C@H](NCC3CC3)C2)nc(Nc2cccc(C#N)c2)n1 [Example 237] | 0.0013 |
| CCCc1cc(N2CC[C@H](NC(=O)Cc3ccncc3)C2)nc(Nc2ccc(C)c(C#N)c2)n1 [Example 429] | 0.025 |
| CCCc1cc(N2CC[C@H](NC(=O)CO)C2)nc(Nc2ccc(N)c(C(F)(F)F)c2)n1 [Example 476] | 0.014 |
| CCCc1cc(N2CCC[C@H]2C)nc(Nc2ccc(OC)c(N)c2)n1 [Example 331] | 0.138 |
| CCCc1cc(N2CCC[C@H]2COC)nc(Nc2ccc(F)c(C(F)(F)F)c2)n1 [Example 41, (S)-N-[4-fluoro-3-(trifluoromethyl)phenyl]-4-[2-(methoxymethyl)pyrrolidin-1-yl]-6-propylpyrimidin-2-amine] | 0.15 |
| CCCc1cc(N2CCC(NC(C)=O)C2)nc(Nc2ccc3[nH]c(C(F)(F)F)nc3c2)n1 (stereo not shown) [Example 307] | 0.24 |
| CCCc1cc(N2CCC[C@H]2COC)nc(Nc2cccc([N+](=O)[O-])c2)n1 [Example 32, (S)-4-[2-(methoxymethyl)pyrrolidin-1-yl]-N-(3-nitrophenyl)-6-propylpyrimidin-2-amine] | 0.23 |
